Experiment [1] relates to CCL5, CCL7, CXCL10, CXCL11, IL-8, GM-CSF and TNF-α. Kind of experiment: NTHi-induced expression of pro-inflammatory mediators in BEAS-2B cells. Format: cell-based, human. The procedure:
Bacterial strains and culture condition. […] Bacteria were grown on chocolate agar plates at 37° C. in an atmosphere of 5% CO2 overnight and subsequently inoculated in brain heart infusion (BHI) broth supplemented with 3.5 μg/mL NAD and hemoglobin (BD Biosciences). After overnight incubation, the bacteria were subcultured into fresh broth and the log phase bacteria, monitored by measurement of optical density (OD) value, were washed and suspended in DMEM for in vitro cell experiments and in isotonic saline for in vivo animal experiments. For all in vitro experiments except the dose dependent experiment, NTHi was treated at multiplicity of infection (MOI) of 50.
Cell culture. All media described below were supplemented with 10% fetal bovine serum (Sigma-Aldrich). […] BEAS-2B cells stably expressing human PDE4B2 (PDE4B2-stable cells) were obtained by plasmid transfection following Geneticin selection (300 μg/mL). Cells were cultured in a humidified atmosphere of 5% CO2 at 37° C.

A further experiment concerns PDE4. Conditions: estimated; Bender and Beavo; cited from earlier work.
Experiment [2] concerns PDE4B. Nature of the experiment: PDE4B mRNA expression (Q-PCR) in BEAS-2B cells stimulated with NTHi. Format: cell-based, human. Conditions: for PDE4B mRNA expression: BEAS-2B, relative to control. The procedure:
(§1) Bacterial strains and culture condition. Clinical isolates of NTHi strain 12 were used in this study (Ishinaga et al., EMBO J., 26(4):1150-1162, 2007). Bacteria were grown on chocolate agar plates at 37° C. in an atmosphere of 5% CO2 overnight and subsequently inoculated in brain heart infusion (BHI) broth supplemented with 3.5 μg/mL NAD and hemoglobin (BD Biosciences). After overnight incubation, the bacteria were subcultured into fresh broth and the log phase bacteria, monitored by measurement of optical density (OD) value, were washed and suspended in DMEM for in vitro cell experiments and in isotonic saline for in vivo animal experiments. For all in vitro experiments except the dose dependent experiment, NTHi was treated at multiplicity of infection (MOI) of 50.
Cell culture. All media described below were supplemented with 10% fetal bovine serum (Sigma-Aldrich). Human bronchial epithelial BEAS-2B cells were maintained in RPMI medium (Life Technologies) (ATCC® CRL-9609™). Human primary bronchial epithelial NHBE (Lonza) cells were maintained in bronchial epithelial growth media (BEGM) supplemented with BEGM SingleQuots (Jono et al., J. Biol. Chem. 277(47):45547-45557, 2002). BEAS-2B cells stably expressing human PDE4B2 (PDE4B2-stable cells) were obtained by plasmid transfection following Geneticin selection (300 μg/mL). Cells were cultured in a humidified atmosphere of 5% CO2 at 37° C.

Experiment [3] relates to PDE4B2. Kind of experiment: PDE4B2 protein expression (Western blot) in mouse lung tissue extracts. Conditions: NTHi and roflumilast. Format: in vivo.
Procedure: (§2) Western blot. Whole-cell extracts and mouse lung tissue extracts were recovered with lysis buffer (50 mM Tris-HCl at pH7.4, 1% NP40, 0.25% deoxycholate, 150 mM NaCl, 1 mM EDTA, 1 mM NaF, supplemented with 1 mM Na3VO4 and PIC). For PDE4B protein, cell extracts were recovered with Buffer A as described above. Cell or tissue extracts were separated on 8% SDS-PAGE gels and transferred to polyvinylidene difluoride (PVDF) membrane (GE Healthcare Life Sciences). The membrane was blocked with a solution of TBS containing 0.1% Tween 20 (TBS-T) and 5% non-fat dry milk. The membrane was then incubated in a 1:1,000-1:2,000 dilution of a primary antibody in 5% BSA-TBS-T. After washing (×3) with TBS-T, the membrane was incubated with a 1:5,000 dilution of the corresponding secondary antibody in 2.5% non-fat dry milk-TBS-T. Respective proteins were visualized using Amersham ECL Prime Regent (GE Healthcare Life Sciences).
Mice and animal experiments. […]
Immunofluorescent staining. Formalin-fixed paraffin-embedded mouse lung tissue was sectioned (4 μm) and PDE4B protein was detected using a rabbit anti-PDE4B and an FITC-conjugated goat anti-rabbit IgG (Santa Cruz Biotechnology). Stained sections were then imaged, and images were recorded under light- and fluorescence-microscopy systems (AxioVert 40 CFL, AxioCam MRC, and AxioVision LE Image system, Carl Zeiss).
The next experiment relates to p65. Nature of the experiment: p65 phosphorylation by Phos-tag PAGE in BEAS-2B cells. In kind it is cell-based, human. Conditions: roflumilast as co-treatment with NTHi. The procedure:
Phos-tag PAGE. Recombinant p65 proteins or nuclear extracts recovered without EDTA/EGTA were separated by SDS-PAGE, with 6% gels containing 50 μM Mn^2+-Phos-tag Acrylamide and transferred to PVDF membrane according to the manufacture's instructions (Kinoshita et al., Mol. Cell. Proteomics 5(4):749-757, 2006.

For the next experiment, the system named is NF-κB promoter. Kind of experiment: IKKβ-CA-induced NF-κB promoter activity (luciferase) in PDE4B2-transfected cells. Format: cell-based, human. Conditions: up to 10 μM.
For experiment [4], the system named is PDE4B2. Nature of the experiment: PDE4B2 protein expression (Western blot) in airway epithelial cell extracts. Format: cell-based, human. Conditions: NTHi and roflumilast. A general note: In western blotting, separated proteins are transferred to a membrane and probed.
Procedure: as §2
Experiment [5] has as its system CCL5, CCL7, CXCL10 and CXCL11. Nature of the experiment: NTHi-induced chemokine expression in PDE4B2-stable cells. In kind it is cell-based, human.
For a further experiment, the system named is p65 and PKA-Cβ. Kind of experiment: Co-immunoprecipitation of p65 and PKA-Cβ in BEAS-2B cells. In kind it is cell-based, human. Conditions: BEAS-2B cells transfected with p65 and PKA-Cβ; co-treatment of roflumilast with NTHi. The procedure:
Immunoprecipitation. Cell extracts were incubated with 1 μg of primary antibodies overnight at 4° C., followed by a 2 h incubation with protein G PLUS-agarose beads (Santa Cruz Biotechnology). Immunoprecipitates were then suspended in a sample buffer, separated on 8% SDS-PAGE gels, transferred to PVDF membrane, and detected by immunoblot analysis as described above.

The subject of experiment [6] is PDE4B. Kind of experiment: PDE4B mRNA expression in lung tissues of NTHi-inoculated mice. Conditions: mice, Rof 5 mg/kg i.p. 2 hours before intratracheal NTHi 5×10^7 cfu per lung, after 5 hours.
For experiment [7], the system named is PDE4B. Nature of the experiment: PDE4B mRNA expression (Q-PCR) in primary NHBE cells stimulated with NTHi. In kind it is cell-based, human. Conditions: Rof 0.1 μM 1 hour, then 1.5-hour NTHi. The procedure:
as §1
Cell culture. All media described below were supplemented with 10% fetal bovine serum (Sigma-Aldrich). Human bronchial epithelial BEAS-2B cells were maintained in RPMI medium (Life Technologies) (ATCC® CRL-9609™). Human primary bronchial epithelial NHBE (Lonza) cells were maintained in bronchial epithelial growth media (BEGM) supplemented with BEGM SingleQuots (Jono et al., J. Biol. Chem. 277(47):45547-45557, 2002). BEAS-2B cells stably expressing human PDE4B2 (PDE4B2-stable cells) were obtained by plasmid transfection following Geneticin selection (300 μg/mL). […]

The values that follow come from patent US11045456B2, “Compositions and methods for treating COPD and other inflammatory conditions” (Georgia State University Research Foundation, Inc., priority 2015, dated 2021).

Procedure for NF-κB promoter: Plasmids, transfections and luciferase assay. […] Empty vector was used as a control and was also added where necessary to ensure an equivalent amount of input DNA. All transient transfections were carried out in triplicate using TRANSIT-LT1® reagent (Minis) following the manufacturer's instruction.

As for `O=C(Nc1c(Cl)cncc1Cl)c1ccc(OC(F)F)c(OCC2CC2)c1` [roflumilast], the “NTHi-induced induction of CCL5, CCL7 and IL-8” value in [1] (BEAS-2B cells) is recorded as “modestly suppressed”. For the same compound, the “NTHi-induced induction of TNF-α and GM-CSF” value in [1] (BEAS-2B cells) is given as “markedly inhibited”. In addition, in [1] (BEAS-2B cells, even at higher concentration), the “NTHi-induced CXCL10 and CXCL11 induction” value is “almost no inhibitory effect”. Further, in experiment [1] (in PDE4B-depleted but not in PDE4D-depleted cells), the “efficacy in suppressing Group A-chemokines” value is recorded as “more efficacious”. Also, in the experiment with PDE4, the IC50 (commonly the concentration that gives 50% inhibition) is under 1 nM. The “PDE4B expression at the mRNA level” value in the experiment with PDE4B [2] (BEAS-2B cells, roflumilast with NTHi, Q-PCR, dose-dependent) is recorded as “synergized with NTHi to up-regulate PDE4B expression”. Further, the “PDE4B mRNA expression” value in the experiment on PDE4B [2] (Rof 0.1 μM 1 h, then 1.5-hour NTHi at MOI of 25, 50, and 100) was “increased”; in the experiment with PDE4B [2] (Rof 0.01, 0.1, and 1 μM 1 h, then 1.5-hour NTHi) it was “increased”; in the experiment on PDE4B [7], “increasing PDE4B mRNA significantly”. In addition, the “~70-kDa PDE4B isoform (PDE4B2 protein)” value in the experiment with PDE4B2 [3] and in the experiment on PDE4B2 [4] was “induced an increase” each time. Further, the “phosphorylation of p65 (induction)” value in the experiment with p65 is recorded as “induced phosphorylation of p65”. Further, the “IKKβ-CA-induced NF-κB promoter activity” value in the experiment on NF-κB promoter (cells overexpressing PDE4B2-WT or PDE4B2-D392A) and in the experiment with NF-κB promoter (cells transfected with PDE4B2-D392A) was “unable to fully inhibit” throughout. Further, the “NTHi-induced expression of CCL5, CCL7, CXCL10 and CXCL11 (Group A-chemokines)” value in experiment [5] (highest concentration tested (10 μM)) is on record as “unable to fully inhibit”. In experiment [5] (lower dose of roflumilast (<1 μM)), the “NTHi-induced expression of CXCL10 and CXCL11” value is given as “slightly enhanced”. For the same compound, in the experiment with p65 and PKA-Cβ, the “interaction of p65 and PKA-Cβ” value was “enhanced”. Besides, the “PDE4B mRNA expression in lung tissues” value is “synergistically enhanced” in the experiment on PDE4B [6] and “significantly elevated” in the experiment on PDE4B [6] (listed as Rof).
